Data published in US20240156832A1, “METHODS OF METABOLIZING METOPIMAZINE AND ITS SALTS” (Neurogastrx, Inc., priority 2020, published 2024).
Entries after “also recorded” stand apart in the source; their conditions may differ.

Columns and labels:
[1] = tested on: cytochrome P450 enzymes in HLM; assay: HLM incubation with CYP inhibitors, with and without NADPH; details: peak area ratio, 60 min, ABT 1 mM, quinidine 1 μM
Method: Initially, two sets of incubations were conducted with HLM (0.5 mg/mL microsomal protein), 1 and 1011M MPZ, 100 mM KPi buffer (pH 7.4) where one set was in the presence and the other set was in the absence of 1 mM ABT, a non-specific CYP inhibitor for 60 minutes. This allowed the assessment of total CYP contribution for MPZ metabolism. Then, CYP-specific chemical inhibitors were used to assess the contribution of individual major CYP-isoforms where HLM were incubated with 1 or 1011M MPZ in the presence and in the absence of each CYP specific inhibitor at 37° C. for 60 minutes. The following CYP-isoform specific chemical inhibitors were used; furafylline (10 μM), tranylcypromine (10 μM), montelucast (0.5 μM), sulfaphenazole (5 μM), (+) benzylnirvinol (5 μM), quinidine (1 μM) and itraconazole (2.5 μM), for CYP1A2, CYP2B6, CYP2C8, CYP2C9, CYP2C19, CYP2D6 and CYP3A4/5. Parallel incubation with seven CYP specific probe substrates were included in as positive controls. For negative control reaction, MPZ was incubated at 37° C. in duplicate in reaction mixture devoid of NADPH. All other procedures were the same as previously described.

[2] = tested on: human microsomal liver amidase; assay: Incubations with HLM for microsomal hydrolase/amidase activity; type: in vitro ADME
Method: Incubations with HLM for Microsomal Hydrolase/Amidase Activity Prior to the reaction for amidase activity, the reaction mixture containing KPi buffer (pH 7.4, 8.4, or 9.4) and HLM was pre-incubated at 50° C. for 5 minutes to inactivate CYP and FMO activities in HLM. The mixture was placed on ice to cool down. An aliquot was taken out which was considered as t=0 min incubation. Then 10 μM MPZ was added into the remaining mixture and incubated at 37° C. on an orbital shaker for 60 minutes. A parallel set of incubations was conducted with 10 μM MPZ in the presence at 2 and 16 μM, of BNPP (a known inhibitor of amidase). All reactions were in triplicate. The total percentage of organic solvent in incubation mixture was ≤0.1%. The reactions were terminated by the addition of chilled acetonitrile: methanol, 90:10, (v/v). The samples were vortex-mixed and stored at ≤−70° C. and were subjected analyzed by LC MS/MS.

[3] = tested on: microsomal FMOs in HLM; assay: Incubation with HLM for FMO (pH 8.4, methimazole, heat); type: in vitro ADME, human; details: HLM pH 8.4, 1 mM methimazole
Method: MPZ, at 1.0 and 10.0 μM, was incubated with HLM or HKM to determine the contribution of microsomal FMOs on the metabolism of MPZ.
A reaction mixture containing KPi buffer (pH 8.4), HLM or HKM (0.5 mg/mL protein) and MPZ (1.0 and 10.0 μM) was pre-incubated for 3-5 minutes at 37° C. The reaction was initiated by the addition of NADPH into the reaction mixture. Reaction was conducted for 0 and 60 min. A positive control (benzydamine, 100 μM) was incubated in duplicate for 0 and 20 minutes. Parallel incubation was conducted by adding 1 mM methimazole, a non-specific FMO inhibitor, under identical conditions. Heat inactivated microsomes (50° C. for at least 5 minutes) was incubated under identical conditions negative control. All other procedures were the same as described previously.

[4] = Incubation of MPZ in human liver S9; type: in vitro ADME; details: human liver S9, 60-minute incubation
Method: Initial experiment was conducted with S9 fractions from liver and intestine to assess the role of liver and intestinal enzymes in the metabolism of MPZ. The reaction mixture contained 2.5 μM MPZ, pooled human liver or intestine S9 fraction (1 mg/mL S9 protein), 100 mM KPi buffer (pH 7.4). The reaction mixture was pre-incubated for 3-5 min at 37° C. in a humidified incubator filled with 5% CO2 followed by the addition of NADPH (1 mM) to initiate the reaction. The reaction was incubated for 0 and 60 min. The total percentage of organic solvent in incubation mixture was <0.1%. The reactions were terminated by the addition of sample mixture of acetonitrile and ethanol (90:10, v/v). The positive control substrate, 7-EC, was incubated in triplicate in an identical manner as MPZ for S9 fractions.

[5] = Method: For protein concentration optimization, MPZ at 1 μM was incubated with varying concentration of HLM proteins (0.1, 0.25, 0.5, and 1.0 mg/mL microsomal protein), 100 mM KPi buffer (pH 7.4). After pre-incubation for 3-5 minutes at 37° C., the reaction was initiated by the addition of NADPH (1 mM) for 60 minutes in triplicates.
For incubation time optimization, MPZ at 1 μM was incubated with pooled HLM (0.5 mg/mL microsomal protein) and 100 mM KPi buffer (pH 7.4). After pre-incubation for) for 3-5 minutes at 37° C., the reaction was initiated by the addition NADPH (1 mM) incubated for 0, 10, 20, 40, 60, and 90 minutes to determine the optimal incubation time (linear range). All metabolic reactions in this study were terminated by the addition of chilled organic solvent (acetonitrile:ethanol 90:10, v/v) containing internal standards, unless otherwise indicated.
LC separation conditions were developed for MPZ and its metabolites (MPZA and MPZS), 7 hydroxycoumarin, each metabolite of CYP probe substrate, benzydamine N oxide, and phthalazine. The LC MS/MS system consisted of a Shimadzu Nexera X2 LC-30 UPLC system (Shimadzu Corporation, Kyoto, Japan), and an API 4000 triple quadrupole mass spectrometer (SCIEX, Framingham, MA) was used for analysis. All analytes were analyzed using electrospray ionization (ESI) in positive ion mode except for 7-EC, which used negative ion mode. The LC-MS/MS system was controlled by Analyst software (version 1.6.1, SCIEX, Framingham, MA).
For each analytical method, a calibration curve was generated for the quantification of MPZ and its two metabolites (MPZA and MPZS). […] PAR was also used for all positive control compounds.
% parent remaining=(mean concentration or PAR at each sampling time point/mean concentration or PAR of time zero)×100

C=C[C@H]1C[N@@]2CC[C@H]1C[C@@H]2[C@@H](O)c1ccnc2ccc(OC)cc12 [quinidine, reference compound]
effect of CYP inhibitor on MPZH formation [1]: inhibited formation of MPZH

O=[N+]([O-])c1ccc(OP(=O)(O)Oc2ccc([N+](=O)[O-])cc2)cc1 [BNPP, bis(4-nitrophenyl) phosphate]
activity (MPZA formation) inhibited ([2]; BNPP 2 μM, HLM, 10 μM MPZ, even at the highest pH): at least 97% | MPZA formation inhibited ([2]; BNPP 16 μM, HLM, 10 μM MPZ, all three pH values): > 99% | inhibition of MPZA formation in HLM (in words) ([2]; BNPP 2 and 16 μM, pH 7.4, 8.4, 9.4): dramatically inhibited the formation of MPZA in HLM; also recorded: effectively inhibits formation of MPZA under all conditions

Cn1cc[nH]c1=S [methimazole, reference compound]
effect of FMO inhibitor on MPZA formation [3]: not inhibited

metopimazine sulfoxide [MPZS]
metabolites formed [4]: formed | Peak Area at Time 0 [5]: 0 | Peak Area at Time 90 min [5]: 59
